Source: patent US9018176B2, “Inducers of hematopoiesis and fetal globin production for treatment of cytopenias and hemoglobin disorders” (priority 2010, dated 2015)
“And” between values parts separate entries of the source, which are not always exact repeats. Identical values can stand only once. “Also recorded” adds a separate entry of the source.

What was measured:
γ-globin mRNA [1] = assay: γ-globin mRNA in cultured primary human erythroid progenitors (BFU-e), real-time PCR; format: cell-based; settings: for γ-globin mRNA induction: cultured primary human erythroid progenitors, concentrations pharmacologically achievable in humans; for % induction of γ-globin mRNA gene expression: FIG. 4C, HFU-E (burst-forming units-erythroid) cells, Resveratrol 30 μM, desloratadine 50 μM, NSC 50 μM, Benserazine 5 μM; for effect in increasing % of γ-globin mRNA expression: FIG. 6, BFU-e cells, Desloratadine 3 μM, Benserazide 3 μM, NSC5397 0.6 μM
Experimental: Erythroid progenitors were cultured from cord blood CD34+ cells. […] Each compound was tested in three different cultures. […] On day 14, RNA was extracted from cultured erythroid cells, and relative quantification PCR was performed. Briefly, cDNA was generated from equal amounts of total RNA extracted using The PerfectPure RNA Purification Kit (5 Prime Inc Gaithersburg, Md.). Real-time PCR was performed using an ABI 7500 Real-Time PCR system (Applied Biosystems, Foster City, Calif.). Levels of globin mRNA were calculated by the ΔΔCt method. […] GAPDH levels were used for standardization. Western blotting Nuclear extract of K562 cells and 14-day-old BFU-e were analyzed by electrophoresis using 5-24% gradient SDS-polyacrylamide mini-gels (BIORAD Laboratories. Hercules Calif.). Proteins in the gels were transferred to Immobilon-P membranes. Blots were then incubated with BCL11A polyclonal (Novus Biologicals, Littleton Co) or mouse monoclonal (Santa Cruz Biotechnology, Santa Cruz Calif.) antibodies, after washing blots were incubated with anti-rabbit IgG-horseradish peroxidase secondary antibody (ECL, Little Chalfont Buckinghamshire UK). BCL11A bands were detected on the X-ray film using Western Lightning Reagents (Perking Elmer Inc, Waltham, Mass.).

γ-globin gene promoter = assay: Dual luciferase reporter assay (μLCRβprRlucAγprFluc cassette) in GM979 cells; format: cell-based; settings: Resveratrol at 10 μM, MS-275 at 5 μM; for activity compared with sodium Butyrate: Ambroxol at 1 μM, Desloratadine at 1 μM, Benserazide at 0.03 μM (or a range of 30 nM-5 μM), NSC-95397 at 1 μM, versus sodium Butyrate at 2000 μM; for most active at inducing γ-globin mRNA expression: Benserazide at 0.03 μM
Source text: Cell-based screen for γ-globin inducing compounds in GM979 cells (Skarpidi, et al. Blood 2000; 96:321-326). Mini-gene construct integrated into GM979 cell genome. The readout is Firefly/Renilla luciferase ratio, and is designed to identify only strong inducers of the γ-globin promoter, and specificity for the γ- vs. the […]γ-globin gene. This second assay confirmed 12/15 candidates.
This assay is […], and consists of a dual-luciferase reporter construct containing the LCR and the […] luciferase and the Aγ-globin promoter linked to firefly luciferase (μLCRβprRlucAγprFluc cassette), stably-transfected into GM979 cells. The orientation of the promoters and μLCR allowed detection only of strong, specific inducers of the γ-globin gene promoter. This assay is also been predictive of in vivo HbF-inducing activity.
The γ-globin-specificity of hits was determined in a secondary assay employing a stably-transfected dual-luciferase reporter construct containing the LCR and the β-globin promoter linked to renilla luciferase and the Aγ-globin promoter linked to firefly luciferase (μLCRβprRlucAγprFluc cassette) (FIG. 2B).

γ-globin mRNA [2] = assay: γ-globin mRNA in cultured primary human erythroid progenitors (BFU-e), real-time PCR; format: cell-based
[3] = system: red blood cell production; assay: Total hemoglobin and hematocrit in phlebotomized anemic baboons; format: in vivo, baboons (Papio hamadryas anubis); settings: for total hemoglobin levels: MS-275 as
Experimental: (§1) Studies to evaluate pharmacokinetic properties and γ-globin induction were performed in juvenile baboons (Papio hamadryas anubis). Briefly, animals were chronically phlebotomized on a daily basis to achieve stable anemia, maintaining a total hemoglobin level of 7.0 to 7.5 g/dl. Candidate compounds were administered intravenously or orally once daily in single doses for pharmacokinetic studies, or once daily in single doses, 4-5 days per week for 4-5 weeks, for pharmacodynamic studies. […] Levels of γ-globin mRNA expression and globin chain synthesis were assessed in baboons before and during treatment with test compounds. A washout period between administrations of different compounds in the same baboon was provided.
(§2) Chronically catheterized baboons were phlebotomized daily to create chronic anemia with total hemoglobin levels (Hb) between 7.0 to 7.5 g/dl which simulates the expanded erythropoiesis and anemia in sickle cell disease and beta thalassemia. Blood counts were drawn and total Hb (hemoglobin) and reticulocytes were analyzed on a hemavet analyzer. Fetal globin mRNA was analyzed by RT-PCR and proportions for f-cells were analyzed by flow cytometry. […] Desloratidine (0.6 mg/kg) was administered for 4 days following a washout period. Blood counts were obtained at least 3 days/week.
Baboon 1509 (weight 10.9 kg) was phlebotomized to induce anemia and marrow expansion, similar to the hemoglobin disorders.

γ-globin = assay: Fetal globin (γ-globin mRNA, HbF) induction in phlebotomized anemic baboons; format: in vivo, baboons (Papio hamadryas anubis); settings: for fetal globin mRNA: Benserazide 1 or 3 mg/kg in baboon 1509, MS-275 and desloratidine
Experimental: as §1, §2
Baboons HL-25 and HD50 were phlebotomized daily to create anemia with erythroid expansion. When stably anemic, Desloratidine (0.6 mg/kg) was administered orally, fetal hemoglobin (HbF) protein levels were assayed.

CB BFU-E cells = assay: CB BFU-E cell proliferation (cells/colony)
Experimental: Fetal globin-inducing activity in human erythroid progenitors was assessed. Human erythroid progenitors were cultured from peripheral blood samples, exposed to the test compounds at varying concentrations and for varying durations and analyzed for globin chain mRNA ratios. Erythroid progenitors were cultured from cord blood CD34+ cells. Briefly, CD34+ cells in the human cord blood were separated using a Ficoll-paque density gradient. CD34+ cells were cultured in H4230 medium containing 2 mM L-glutamine, 1% Methylcellulose in Iscove's Medium, 30% Fetal Bovine Serum, 1% Bovine Serum Albumin and 10^-4 M β-mercaptoethanol. Methylcellulose H4230 medium was supplemented with EPO (0.5 U/ml) and IL-3 (20 ng/ml) to support BFU-e growth. Cells were cultured in […] mini-dishes and incubated in a humidified atmosphere containing 5% CO2, at 37° C. Different concentrations of the test compounds were added at the time the cultures were established. Each compound was tested in three different cultures. BFU-e colonies grown in mini-dishes were counted on day 14 and harvested for mRNA analysis.

γ-globin mRNA [4] = assay: γ-globin mRNA gene expression in K562 cells; format: cell-based; settings: for % induction of γ-globin mRNA gene expression: FIGS. 4A and 4B, Resveratrol 30 μM, desloratadine 50 μM, NSC 50 μM, Benserazine 5 μM
cell viability = settings: cited from earlier work; for DNA fragmentation: fragmentation assays
[5] = system: system A transport of amino acids; settings: cited from earlier work
[6] = Ambroxol 0.1-1 uM, Cord Blood progenitors
[7] = Ambroxol 0.1-1 uM, Normal progenitors
[8] = Benserazide 1 or 3 mg/kg in baboon 1509
[9] = Benserazide 0.1-0.3 uM, Cord Blood progenitors
[10] = Benserazide 0.1-0.3 uM, Hemoglobin disorder progenitors
[11] = Benserazide 0.1-0.3 uM, Normal progenitors
[12] = MS275 0.5 uM, Cord Blood progenitors
[13] = MS275 0.5 uM, Normal progenitors

In the case of `Nc1c(Br)cc(Br)cc1CN[C@H]1CC[C@H](O)CC1` [Ambroxol, ambroxol], the “fetal globin mRNA, single cultures” value (γ-globin mRNA [1]; [6]) was 302 % of control and 233 % of control and 193 % of control, the “γ-globin mRNA induction” value (γ-globin mRNA [1]) was 3 fold and the “activity compared with sodium Butyrate” value (γ-globin gene promoter) was “significantly more active”. The “fetal globin mRNA, Means” value (γ-globin mRNA [2]; [6]) was 243 % of control, the “responses (cultures with induced fetal globin mRNA)” value (from here on “responses”) (γ-globin mRNA [2]; [6]) was 3/4 and the “fetal globin mRNA, Means” value (γ-globin mRNA [2]; [7]) was 224 % of control. For the same compound, the “responses” value (γ-globin mRNA [2]; [7]) was 1/1.
With `NC(CO)C(=O)NNCc1ccc(O)c(O)c1O` (stereo not shown) [Benserazide, 2-amino-3-hydroxy-N′-(2,3,4-trihydroxybenzyl)propanehydrazide] the “hemoglobin level after treatment” value ([3]; Baboon 1509, Benserazide 1 mg/kg then 2 mg/kg, by 2 weeks after administration, daily phlebotomy continued, before 7.6 g/dl) was 8.9 g/dL, the hematocrit after treatment ([3]; Baboon 1509, Benserazide 1 mg/kg then 2 mg/kg, by 2 weeks after administration, daily phlebotomy continued, before 25.6%) was 28% and the blood cell proliferation [3, 8] was “increased blood cell proliferation”. For the same compound, the total hemoglobin levels [3, 8] was “increased”, the “Increase in γ-globin mRNA above baseline” value (γ-globin; Baboon 1509, Benserazide oral 2 mg/kg) was 193% and the “fetal globin mRNA” value (γ-globin) was “increased”. For the same compound, the “responses” value (γ-globin mRNA [1]; [9]) was 4/5, the “% induction of γ-globin mRNA gene expression” value (from here on “% induction”) (γ-globin mRNA [1]) was “most significant % increase” and the “effect in increasing % of γ-globin mRNA expression” value (γ-globin mRNA [1]) was “greatest effect”. For the same compound, the “γ-globin mRNA induction” value (γ-globin mRNA [1]) was “up to 5 fold”, the “concentrations that induce fetal globin (HbF) mRNA” value (γ-globin mRNA [1]; primary erythroid progenitors in vitro) was 0.3 to 5.0 µM and the “activity compared with sodium Butyrate” value (γ-globin gene promoter) was “significantly more active”. For the same compound, the “most active at inducing γ-globin mRNA expression” value (γ-globin gene promoter) was “most active”, the “fetal globin mRNA, Mean” value (γ-globin mRNA [2]; [9]) was 300 % of control and the “fetal globin mRNA, Mean” value (γ-globin mRNA [2]; [10]) was 212 % of control. For the same compound, the “responses” value (γ-globin mRNA [2]; [10]) was 4/4, the “fetal globin mRNA, single subjects” value (γ-globin mRNA [2]; Benserazide 0.1-0.3 uM, Hemoglobin disorder progenitors (subjects)) was 178 % of control and 143 % of control and 282 % of control and 128 % of control and 277.3 % of control and the “fetal globin mRNA, Mean” value (γ-globin mRNA [2]; [11]) was 151 % of control. For the same compound, the “responses” value (γ-globin mRNA [2]; [11]) was 3/4, the “fetal globin mRNA, single subjects” value (γ-globin mRNA [2]; Benserazide 0.1-0.3 uM, Normal progenitors (MB, JS, ABM)) was 115 % of control and 223 % of control and 114 % of control and the “number of blood cells per colony” value (CB BFU-E cells; FIG. 8) was “increase the number of blood cells per colony”. For the same compound, the “% induction” value (γ-globin mRNA [4]; K562 cells) was “most significant % increase”.
Compound `CCCC(=O)O` [Butyrate, butyrate] has a concentration required (CB BFU-E cells; FIG. 8, comparator for the 3 drug candidates) of 200 µM.
In the case of `Nc1ccccc1NC(=O)c1ccc(CNC(=O)OCc2cccnc2)cc1` [MS-275, N-(2-aminophenyl)-4-[N-(pyridin-3-yl-methoxycarbonyl)aminomethyl]benzamide], the total hemoglobin levels [3, 8] was “increased”, the “blood total hemoglobin (Hb) levels compared with positive control ST20 (150 mg/kg)” value ([3]; FIG. 12B, MS-275 3 mg/m^2 for 4 days and 2 weeks vs ST20 2 and 4 days, desloratadine 0.6 mg/kg for two days) was “to a greater extent” and the “Increase in γ-globin mRNA above baseline” value (γ-globin; Baboon HD50, MS-275 oral 0.18 mg/kg, 0.18 mg/kg) was 270%. For the same compound, the “fetal globin mRNA” value (γ-globin) was “induced”, the “γ-globin mRNA expression in blood compared with positive control ST20 (150 mg/kg)” value (γ-globin; FIG. 12A, MS-275 3 mg/m^2 for 4 days and 2 weeks, desloratadine 0.6 mg/kg for two days vs ST20 after 2 or 4 days) was “to the same level” and the “γ-globin induction compared with arginine butyrate” value (γ-globin mRNA [1]; FIG. 13, MS-275 0.5 μM vs arginine butyrate 100 μM, progenitors from human sources with low or high basal HbF) was “higher activity; also recorded: greater”. For the same compound, the “γ-globin mRNA induction” value (γ-globin mRNA [1]) was “up to 3.7 fold”, the “activity compared with sodium Butyrate” value (γ-globin gene promoter) was “significantly more active” and the “most active at inducing γ-globin mRNA expression” value (γ-globin gene promoter) was “most active”. The “fetal globin mRNA, Mean” value (γ-globin mRNA [2]; [12]) was 345 % of control, the “responses” value (γ-globin mRNA [2]; [12]) was 2/2 and the “fetal globin mRNA, Mean” value (γ-globin mRNA [2]; [13]) was 394 % of control. For the same compound, the “responses” value (γ-globin mRNA [2]; [13]) was 5/6, the “fetal globin mRNA, single subjects” value (γ-globin mRNA [2]; MS275 0.5 uM, Normal progenitors (MB, MB, JS, ABM, ABM)) was 680 % of control and 534 % of control and 168 % of control and 463 % of control and 126 % of control and the “γ-globin induction, dependence on dose” value (γ-globin mRNA [4]; FIG. 10B, K562 cells) was “dose-dependent”.
For `O=C1C(SCCO)=C(SCCO)C(=O)c2ccccc21` [NSC-95397], the “% induction” value (γ-globin mRNA [1]) was “most significant % increase”, the “effect in increasing % of γ-globin mRNA expression” value (γ-globin mRNA [1]) was “greatest effect” and the “activity compared with sodium Butyrate” value (γ-globin gene promoter) was “significantly more active”. For the same compound, the “concentration giving the most γ-globin mRNA expression” value (γ-globin mRNA [4]; FIG. 5, K562 cells, tested Desloratadine 10 μM-100 μM, Resveratrol 5 μM-30 μM, NSC 1 μM-50 μM) was 50 µM and the “% induction” value (γ-globin mRNA [4]; K562 cells) was “most significant % increase”.
In the case of `CCCC(=O)OCC` [butyric acid ethyl ester], the DNA fragmentation (cell viability) is listed as “reduce DNA fragmentation”.
For `CC(C)C(N)=O` [isobutyramide], the cell viability (cell viability; DNA fragmentation assays) is listed as “decrease cell viability”.
For `O=C(O)COc1ccccc1` [phenoxyacetic acid], the “system A transport of amino acids” value [5] is given as “do not significantly alter” and the DNA fragmentation (cell viability) is given as “reduce DNA fragmentation”.
In the case of `CC(=Cc1ccccc1)C(=O)O` [α-methyl cinnamic acid], the “system A transport of amino acids” value [5] is listed as “do not significantly alter”.
